Three compounds from patent US20040087561A1, “Treatment of sexual dysfunction” (priority 2000, published 2004) can be followed below.

Experiment [1] concerns ovariectomised female Sprague Dawley rats. The experiment in a line: Inhibition of female rat sexual proceptivity by NMB and its antagonism. Type of experiment: in vivo. The protocol:
Ovariectomised female rats (Sprague Dawley, obtained from Charles River, UK) were stereotaxically implanted (coordinates 0.89 mm behind Bregma, 1.3 mm lateral and 2.5 mm vertical) with stainless steel cannulae (6 mm long, O.D. 0.75 mm), held in place with dental cement. Animals were housed in groups of three and returned to a reversed lighting system of 12 h light:dark (lights off 5.00-17.00 h). Correct placement of the cannulae was assessed post-mortem. Rats were used for tests two weeks after ovariectomy (one week after cannulation). The experiments started at least 5 h into the dark period. Forty eight hours before tests, the animals were primed with 5 μg oestradiol benzoate (OB) (s.c, in corn oil) and adapted to the apparatus (in the absence of stimuli animals) for 10 min on 2 consecutive days prior testing. The 10 min test was carried out as previously described. The difference in the percentage of time spent investigating male minus female was calculated, out of the total time spent investigating stimuli.
Progesterone (Prog, 0.5 mg/0.1 ml) was dissolved in corn oil and administered subcutaneously (s.c.), 4 h before test, to induce proceptive behaviour. Compound (1) (15 mg/kg, i.p.) was dissolved in 50% 2-hydroxypropyl-β-cyclodextrin in saline and administered 1 h before the i.c.v. administration. Neuromedin B was obtained from Bachem, UK. It was dissolved in isotonic saline and administered i.c.v. over a 30 sec period, with the aid of a pump set to deliver a flow of 10 μl/min, 10 min before tests. The dosing volume was 5 μl/rat. Each rat received a total amount of 100 ng.
From the present study we can conclude that stimulation of BB1 receptors with an agonist results in inhibition of proceptive behaviour. This inhibitory effect may be prevented by the presence of an antagonist. e.g. Compound (1) In FIG. 5 the bars represent percentage of time spent investigating male, minus the percentage of time spent investigating the female stimuli+SEM, (n=8-12 per group). ***P<0.001 vs progesterone (One-way ANOVA followed by Dunnett's test).

Experiment [2] deals with Sprague Dawley male rats. Nature of the experiment: Sexual behaviour of normal (sexually vigorous) male rats. The experiment is classed as in vivo, rat. The settings on record: Compound (1) 15 mg/kg or fluoxetine 20 mg/kg i.p., 1 h before test, vs vehicle. The method, then:
The potentially stimulatory effect of Compound (1) on male sexual behaviour has been tested on sexually vigorous rats. Sprague Dawley male rats (Charles River, UK) were kept, 4 rats per cage, in a reversed lighting regime (12:12 hours, lights off at 5.00 h), with free access to food and water. The rats were pre-selected by being presented with a receptive female at 4 days intervals, i.e. every third day (having 2 clear days between presentations) until completing 6-7 days of baseline determination. The animals showing consistently vigorous behaviour (ejaculatory latencies <300 s) were chosen for further experiments (n=24). Animals were randomised into three groups. All animals received all three treatments following a latin-square design. Treatments were administered once a week, with a baseline test in between treatments (4 days intervals between baseline and test day). Treatments were Compound (1) (15 mg/kg, dissolved in 50% 2-hydroxypropyl-β-cyclodextrin in saline), vehicle, or Fluoxetine (20 mg/kg dissolved in 100% DMSO). All treatments were administered i.p. in a 1 ml/kg volume, 1 h before tests.
For all the sexual behaviour tests, the males were placed in an observation arena (50-60 cm diameter), starting 5 hours into the dark cycle and observed under red illumination. Three to 4 minutes after placing the male in the arena, a receptive female (ovariectomised, bearing a 7 mm Silastic implant of oestradiol benzoate) was introduced to the arena and the following parameters noted: Mount Latency: time (in seconds) taken between introduction of female and first mount. A maximum time of 15 minutes (900 seconds) was allowed, and the test terminated if no mounts were recorded within that time (FIG. 11), Intromission Latency: time (in seconds) taken between introduction of female and first intromission (FIG. 12), Number of Mounts: to reach ejaculation. When ejaculation was not reached, the number of mounts was not analyzed, Number of Intromissions: to reach ejaculation. When ejaculation was not reached, the number of intromissions was not analyzed (FIG. 13 is number of mounts+intromissions), Ejaculation Latency: time (in seconds) taken from first intromission to ejaculation. A maximum time of 30 minutes (1800 seconds) was given, and the test terminated if ejaculation was not achieved in that time (FIG. 14), and Refractory Period: time (in seconds) taken from ejaculation to the first mount of the next series of sexual activity. In those animals reaching ejaculation the test was terminated at the end of the refractory period, as indicated by the first mount of the next sexual cycle (FIG. 15).
A one-way ANOVA followed by Dunnett's t test was used to compare treated vs vehicle groups each day of testing, for all the sexual behaviour parameters. (*P<0.05, **P<0.01; n=15-16).

Experiment [3] deals with Sprague Dawley male rats. Nature of the experiment: Sexual behaviour of sexually dysfunctional (fluoxetine-treated) male rats. The experiment is classed as in vivo, rat. To be noted: fluoxetine 20 mg/kg i.p. 3 days (vs vehicle+vehicle); day 4 Compound (1) 15 mg/kg or yohimbine 2 mg/kg i.p. 1 h before test (vs fluoxetine+vehicle). The method, then: Sprague Dawley male rats (Charles River, UK) were kept, 4 rats per cage, in a reversed lighting regime (12:12 hours, lights off at 5.00 h), with free access to food and water. The rats were pre-selected by being presented with a receptive female at […], i.e. every third day (haying 2 clear days between presentations) until completing 6-7 trials of baseline determination. The animals showing consistently vigorous behaviour (ejaculatory latencies <300 s) were chosen for further experiments. Animals were treated for 3 consecutive days with either vehicle (water) or fluoxetine (20 mg/kg, i.p., in a 2 ml/kg dosing volume). On the fourth day, the animals treated with water received vehicle (veh+veh) and the animals treated with fluoxetine received one of the three following treatments: Compound (1) (15 mg/kg, dissolved in 50% 2-hydroxypropyl-β-cyclodextrin in saline), vehicle (cyclodextrine), or yohimbine (2 mg/kg dissolved in water). All treatments were administered i.p. in a 1 ml/kg volume, 1 h before tests.
For all the sexual behaviour tests, the males were placed in an observation arena (50-60 cm diameter), starting 5 hours into the dark cycle and observed under red illumination. Three to 4 minutes after placing the male in the arena, a receptive female (ovariectomised, bearing a 7 mm Silastic implant of oestradiol benzoate) was introduced to the arena and the following parameters noted: Mount Latency: time (in seconds) taken between introduction of female and first mount. A maximum time of 15 minutes (900 seconds) was allowed, and the test terminated if no mounts were recorded within that time (FIG. 16), Ejaculation Latency: time (in seconds) taken from first intromission to ejaculation. A maximum time of 30 minutes (1800 seconds) was given, and the test terminated if ejaculation was not achieved in that time (FIG. 17), Percentage of males achieving ejaculation within 30 minutes was calculated (FIG. 18).
A one-way ANOVA followed by Dunnett's t test was used to compare the fluoxetine+vehicle group and other groups for mount and ejaculatory latencies. Percentage of animals ejaculating was analysed using a Chi-square test followed by Fisher's test. (*: P<0.05, **: P<0.01, ***: P<0.001; n=15-19).

Experiment [4] concerns ovariectomised female Sprague Dawley rats. Nature of the experiment: Female rat sexual proceptivity (time investigating male vs female stimulus). Type of experiment: in vivo. To be noted: day 1; Compound (1) 15 mg/kg i.p. 1 h before; progesterone 0.5 mg/0.1 ml s.c. 4 h before; vs vehicle, P<0.01. The protocol: Ovariectomised adult female Sprague Dawley rats (180-200 g, from Charles River) were housed in groups of 6 in a reversed lighting system of 12 h light:dark (lights off 7.00-19.00 h). Two weeks after ovariectomy they were used for sexual activity tests. The experiments started at least 5 h into the dark period.
Tests were carried out in a circular arena of 90 cm diameter, surrounded by a 30 cm high wall. Two small cages with wire-mesh front (15×15 cm) are fixed into the wall such that the front of the cage is <> with the wall and the 2 cages are opposite each other. They contained two stimuli animals: an intact sexually experienced male and a receptive female (ovariectomised, primed with 5 μg oestradiol benzoate dissolved in corn oil and injected subcutaneously 48 hours before the test and with 0.5 mg of progesterone four hours before the test). Sexually naive test and control animals were used. Forty eight hours before the tests, both the test and control animals were primed with 5 μg oestradiol benzoate. For animals used as positive controls, progesterone (0.5 mg/0.1 ml) was dissolved in corn oil and administered subcutaneously (s.c.), 4 h before the test. Test and control animals were introduced one at a time for 10 minute periods into the arena. During the 10 min test, the time that the test or positive control animal spent investigating each stimulus animal was noted. The arena was thoroughly cleaned between animals. The position of the male/female stimuli boxes was randomised between animals, in order to avoid place preference. The difference in the percentage of time spent investigating the male minus the female stimuli was calculated, out of the total time spent investigating stimuli animals.
Compound (1) was dissolved in 100% β-cyclodextrin and then diluted with saline to a final solution of 50% 2-hydroxypropyl-β-cyclodextrin. It was administered intraperitoneally (i.p.) at doses of 3 and 10 mg/kg, in a dosing volume of 1 ml/kg, 1 h before tests. Progesterone (0.5 mg/0.1 ml) was dissolved in corn oil and administered subcutaneously (s.c.), 4 h before test, as a positive control.
Ovariectomised adult female Sprague Dawley rats (180-200 g) were housed in groups of 5 in a reversed lighting system of 12 h light:dark (lights off 5.00-17.00 h). They were used for the experiments at least two weeks after ovariectomy. Forty eight hours before tests, the animals were primed with oestradiol benzoate (5 μg/0.1 ml in corn oil, s.c.). On day 1, progesterone (0.5 mg/0.1 ml, in corn oil, s.c.) was administered to one of the groups 4 h before tests, as a positive control. Compound (1) (15 mg/kg, i.p.) was administered in 50% 2-hydroxypropyl-β-cyclodextrin, 1 h before tests. The test lasted 10 minutes and was carried out as described before. The difference in the percentage of time spent investigating the male minus the female stimuli was calculated, out of the total time spent investigating stimuli animals. Animals were submitted to a test on day 1 and on day 15. From day 2 to 14 the Compound (1) group received a daily injection of the compound (15 mg/kg, i.p.), while both the vehicle and the progesterone groups received an injection of vehicle. On day 15 the test took place again, as described for day 1.
Ovariectomised female rats (Sprague Dawley, obtained from Charles River, UK) were stereotaxically implanted (coordinates 0.89 mm behind Bregma, 1.3 mm lateral and 2.5 mm vertical) with stainless steel cannulae (6 mm long, O.D. 0.75 mm), held in place with dental cement. Animals were housed in groups of three and returned to a reversed lighting system of 12 h light:dark (lights off 5.00-17.00 h). Correct placement of the cannulae was assessed post-mortem. Rats were used for tests two weeks after ovariectomy (one week after cannulation). The experiments started at least 5 h into the dark period. […]

The test system is the same in experiment [5]. Nature of the experiment: Plasma sexual hormone levels (radioimmunoassay) in ovariectomised female rats. The experiment is classed as in vivo, rat. The settings on record: Compound (1) 3-10 mg/kg 1 h, progesterone 0.5 mg/0.1 ml s.c. 4 h before blood collection; vs vehicle. The method, then: Ovariectomised adult female Sprague Dawley rats (180-200 g) were housed in groups of 6 in a reversed lighting system of 12 h light:dark (lights off 7.00-19.00 h). They were used for the experiments at least two weeks after ovariectomy. Forty eight hours before tests, the animals were primed with oestradiol benzoate (5 μg/0.1 ml in corn oil, s.c.). Progesterone (0.5 mg/0.1 ml, in corn oil, s.c.) was administered 4 h before blood collection, as a positive control. Compound (1) (3-10 mg/kg, i.p.) was administered in 50% 2-hydroxypropyl-β-cyclodextrin, 1 h prior to blood collection. Blood was collected from the trunk, after decapitation. It was immediately centrifuged (3500 r.p.m., 4° C., 5 min) and the plasmas frozen until assayed for hormonal content, using commercially available radioimmunoassay kits (^125I-labelled hormones) for oestradiol, progesterone, LH, FSH and prolactin.

For neuromedin B [NMB], the “proceptivity in progesterone-treated rats” value in experiment [1] (NMB 100 ng i.c.v. 10 min before test) is reported as “significantly reduced proceptivity”.

Regarding `CNCCC(Oc1ccc(C(F)(F)F)cc1)c1ccccc1` (stereo not shown) [fluoxetine], in the experiment with Sprague Dawley male rats [2], the Ejaculation latency entry is reported as “also increased”, the Intromission latency result was “significantly increased”, the Mount latency entry is recorded as “significantly increased” and the Refractory period entry was “also increased”. In addition, the “number of mounts and intromissions required to achieve ejaculation” value in the experiment with Sprague Dawley male rats [2] was “No changes”. Further, in the experiment on Sprague Dawley male rats [3], the Ejaculation latency entry is given as “significantly increased”, the Mount latency result is on record as “significantly increased” and the “percentage of animals ejaculating (within 30 minutes)” value is “significantly lower”.

Take `CC(=O)[C@H]1CC[C@H]2[C@@H]3CCC4=CC(=O)CC[C@]4(C)[C@H]3CC[C@]12C` [progesterone, reference compound]: the “effect on proceptivity, day 1” value in experiment [4] is recorded as “stimulatory effect on proceptivity”. Also, in experiment [1] (progesterone 0.5 mg/0.1 ml s.c. 4 h before test, vs vehicle group), the “percentage of time spent investigating the male stimulus” value is “increased the percentage of time spent investigating the male stimulus”. Moreover, in experiment [5], the LH plasma levels result was “significant decrease” and the progesterone plasma levels result is recorded as “significant increase”.
